Counter-ions that a name gives are not always drawn.
How the values were obtained:
[1] = system: hepatitis B surface antigen; test: Antibody response to hepatitis B surface antigen as a function of octadecyl tyrosine dose, radioimmunoassay of sera; assay type: in vivo, BALB/c mice; conditions: 80 ng HBsAg, boost 50 ng, pre-bleed value 11.5
Procedure: (§1) BALB/c mice were immunized with 50 ng of hepatitis B surface antigen in the presence of adjuvant for the non-control mice and in the absence of adjuvant for the control mice. The hepatitis B surface antigen was obtained from 3T3 cells transfected with the gene for the surface antigen. 100 µg of octadecyl amino acid was complexed with the polypeptide as described in Example 2. This mixture, in a total volume of 0.1 ml, was injected on day 1 using an intramuscular route, and the mice were bled on days 7, 14, 21, 28, 35, 42 and 61. The mice were boosted with 35 ng of the polypeptide on day 21.
(§2) The antibody concentration in the sera was determined by radioimmunoassay. The antibody concentration was estimated by comparison with a standard curve obtained using a monoclonal antibody.
The immunizations were carried out in the presence of adjuvant for the non-control mice and in the absence of adjuvant for the control mice.

[2] = system: hepatitis B surface antigen; test: Antibody response to hepatitis B surface antigen with octadecyl amino acid immunoadjuvants, radioimmunoassay of sera; assay type: in vivo, BALB/c mice; conditions: 50 ng HBsAg i.m. day 1, boost 35 ng day 21, 100 µg octadecyl amino acid
Procedure: as §1, §2

[3] = system: hepatitis B surface antigen; test: Antibody response to hepatitis B surface antigen as a function of octadecyl tyrosine dose, radioimmunoassay of sera; assay type: in vivo, BALB/c mice; conditions: day 21, 80 ng HBsAg, boost 50 ng, pre-bleed value 11.5
[4] = system: hepatitis B surface antigen; test: Isotype of the anti-hepatitis B surface antigen antibody response, radioimmunoassay with tritium labelled anti-mouse isotype antibody; assay type: in vivo, mice; conditions: for IgE, radioactivity of bound isotype antibody / IgG1, radioactivity of bound isotype antibody / IgG2a, radioactivity of bound isotype antibody / IgG2b, radioactivity of bound isotype antibody / IgG3, radioactivity of bound isotype antibody / IgM, radioactivity of bound isotype antibody: immunization on day 1 and 21, 50 µg of octadecyl tyrosine
Procedure: The protocol was as described in Example 5, Section 2 (mice) except that 50 µg of octadecyl tyrosine was used for both the primary and secondary (day 21) immunizations. The isotype of the antibody response was determined by radioimmunoassay. Use was made of tritium labelled anti-mouse isotype antibody. Titration was undertaken by incubation of samples on plates coated with immunoaffinity purified hepatitis B surface antigen.

[5] = C.L. Penney et al, Vaccine 4, 1986; cited from earlier work
[6] = system: HIV-1 polypeptide, residues 503-535; test: Antibody response to HIV-1 polypeptide 503-535 coupled to KLH in mice, radioimmunoassay of sera; assay type: in vivo, BALB/c mice; conditions: 100 µg polypeptide-KLH on day 1 and day 21
Procedure: 1) HIV Peptide Sequence The peptide sequence of the HIV was as follows. Product: BC-101 503- H-[…] 535 M.W. 3585.14 (Back-bone) 2) Experiments in mice BALB/c mice were immunized with 100 µg of chemically synthesized polypeptide, corresponding to the amino acid sequence of residues 503-535 of HIV-1, coupled to Keyhole Limpet Hemocyanin (KLH). Octadecyl tyrosine hydro-chloride, 10 µg-100 µg, was complexed with the polypeptide as described in Example 2. This mixture, in a total volume of 0.1 ml, was injected on day 1, and again on day 21. The mice were bled on days 7, 14, 21, 28 and 35. The antibody concentration in the sera was determined by radioimmunoassay. The antibody concentration was estimated by comparison with a standard curve obtained using a polyclonal antibody.

CCCCCCCCCCCCCCCCCCOC(=O)C(N)Cc1ccc(O)cc1 (centres unmarked) [Octadecyl Tyrosine, octadecyl tyrosine hydrochloride]
Antibody response to hepatitis B surface antigen ([1]; 10 µg adjuvant, day 7): 611 CPM | Antibody response to hepatitis B surface antigen ([1]; 10 µg adjuvant, day 14): 2314 CPM | Antibody response to hepatitis B surface antigen ([1]; 10 µg adjuvant, day 28): 8403 CPM | Antibody response to hepatitis B surface antigen ([1]; 10 µg adjuvant, day 35): 10005 CPM | Antibody response to hepatitis B surface antigen ([1]; 50 µg adjuvant, day 7): 2064 CPM | Antibody response to hepatitis B surface antigen ([1]; 50 µg adjuvant, day 14): 846 CPM | Antibody response to hepatitis B surface antigen ([1]; 50 µg adjuvant, day 28): 18804 CPM | Antibody response to hepatitis B surface antigen ([1]; 50 µg adjuvant, day 35): 20616 CPM | Antibody response to hepatitis B surface antigen ([1]; 100 µg adjuvant, day 7): 1107 CPM | Antibody response to hepatitis B surface antigen ([1]; 100 µg adjuvant, day 14): 537 CPM | Antibody response to hepatitis B surface antigen ([1]; 100 µg adjuvant, day 28): 19679 CPM | Antibody response to hepatitis B surface antigen ([1]; 100 µg adjuvant, day 35): 13427 CPM | Anti-HBsAg antibody concentration ([2]; day 7): 68 ng/mL | Anti-HBsAg antibody concentration ([2]; day 14): 91 ng/mL | Anti-HBsAg antibody concentration ([2]; day 21): 58 ng/mL | Anti-HBsAg antibody concentration ([2]; day 28): 355 ng/mL | Anti-HBsAg antibody concentration ([2]; day 35): 833 ng/mL | Anti-HBsAg antibody concentration ([2]; day 61): 752 ng/mL | Antibody response to hepatitis B surface antigen ([3]; 10 µg adjuvant): 342 CPM | Antibody response to hepatitis B surface antigen ([3]; 50 µg adjuvant): 4000 CPM | Antibody response to hepatitis B surface antigen ([3]; 100 µg adjuvant): 1279 CPM | IgE, radioactivity of bound isotype antibody ([4]; day of bleed 14): 33±10 cpm | IgG1, radioactivity of bound isotype antibody ([4]; day of bleed 14): 568±32 cpm | IgG2a, radioactivity of bound isotype antibody ([4]; day of bleed 14): 483±44 cpm | IgG2b, radioactivity of bound isotype antibody ([4]; day of bleed 14): 290±31 cpm | IgG3, radioactivity of bound isotype antibody ([4]; day of bleed 14): 144±19 cpm | IgM, radioactivity of bound isotype antibody ([4]; day of bleed 14): 347±37 cpm | IgE, radioactivity of bound isotype antibody ([4]; day of bleed 35): 55±33 cpm | IgG1, radioactivity of bound isotype antibody ([4]; day of bleed 35): 8030±155 cpm | IgG2a, radioactivity of bound isotype antibody ([4]; day of bleed 35): 12331±336 cpm | IgG2b, radioactivity of bound isotype antibody ([4]; day of bleed 35): 4710±115 cpm | IgG3, radioactivity of bound isotype antibody ([4]; day of bleed 35): 333±17 cpm | IgM, radioactivity of bound isotype antibody ([4]; day of bleed 35): 826±8 cpm | IgE, radioactivity of bound isotype antibody ([4]; day of bleed 42): 29±12 cpm | IgG1, radioactivity of bound isotype antibody ([4]; day of bleed 42): 6176±496 cpm | IgG2a, radioactivity of bound isotype antibody ([4]; day of bleed 42): 2271±215 cpm | IgG2b, radioactivity of bound isotype antibody ([4]; day of bleed 42): 1109±77 cpm | IgG3, radioactivity of bound isotype antibody ([4]; day of bleed 42): 165±24 cpm | IgM, radioactivity of bound isotype antibody ([4]; day of bleed 42): 545±87 cpm | levels of IgE antibodies ([4]; in words, compared to the control without adjuvant): no significant increase | toxicity in animals [5]: non-toxic | Anti-peptide antibody concentration ([6]; 10 µg adjuvant, day 7): 1.61 µg/mL | Anti-peptide antibody concentration ([6]; 10 µg adjuvant, day 14): 3.15 µg/mL | Anti-peptide antibody concentration ([6]; 10 µg adjuvant, day 21): 1.49 µg/mL | Anti-peptide antibody concentration ([6]; 10 µg adjuvant, day 28): 85.9 µg/mL | Anti-peptide antibody concentration ([6]; 10 µg adjuvant, day 35): 131.9 µg/mL | Anti-peptide antibody concentration ([6]; 50 µg adjuvant, day 7): 1.18 µg/mL | Anti-peptide antibody concentration ([6]; 50 µg adjuvant, day 14): 0.75 µg/mL | Anti-peptide antibody concentration ([6]; 50 µg adjuvant, day 21): 2.99 µg/mL | Anti-peptide antibody concentration ([6]; 50 µg adjuvant, day 28): 54.2 µg/mL | Anti-peptide antibody concentration ([6]; 50 µg adjuvant, day 35): 86.2 µg/mL | Anti-peptide antibody concentration ([6]; 100 µg adjuvant, day 7): 0.87 µg/mL | Anti-peptide antibody concentration ([6]; 100 µg adjuvant, day 14): 1.65 µg/mL | Anti-peptide antibody concentration ([6]; 100 µg adjuvant, day 21): 2.04 µg/mL | Anti-peptide antibody concentration ([6]; 100 µg adjuvant, day 28): 155.3 µg/mL | Anti-peptide antibody concentration ([6]; 100 µg adjuvant, day 35): 138.0 µg/mL

Reference: patent EP0597838B1, “VACCINE COMPOSITIONS” (NORTH AMERICAN VACCINE, INC., priority 1990, dated 1991)
